# Assay results from patent US20250120942A1, “BRAIN FUNCTION IMPROVING AGENT” (OSAKA UNIVERSITY, priority 2021, published 2025).
# Assays:
# [1] = system: scopolamine-induced amnesia mouse; experiment: Y-maze test, short-term working memory of scopolamine-induced amnesia mouse (Test Example 2); format: in vivo, ddY mouse; conditions: oral 30 mg/kg, scopolamine 1 mg/kg i.p.; FIG. 2(A),(B)
# Procedure: The effect of inhibiting lowering of short-term memory was examined by orally or subcutaneously (intraperitoneally) administering the compound A to the mouse.
# (§1) 7-weeks-old male ddY mice were purchased from Japan SLC, Inc. and subjected to the experiment after one week habituation period. The animals were reared in the rearing chamber provided with air conditioner (under the condition that the temperature was 22° C.±1° C., the relative humidity was 50±10%, and the irradiation time was 12 hours (8:00 to 20:00)). The feeding method was that the commercially available MF powdery feed (manufactured by Oriental Yeast Co., ltd.) and tap water were taken freely.
# The compound A prepared according to the procedure described in Manufacturing Example 1 was dissolved in 2.5% DMSO solution in advance. There were 15 mice in each group, and the 30 mg/kg compound administration group and the 10 mg/kg compound administration group were established and orally administered. The mice of the control group and Vehicle group were orally administered with only 2.5% DMSO solution. In the same manner the compound B and the compound C were orally administered to 10 mice at a dose of 30 mg/kg respectively. Each mouse of the administration groups of the compound A to C and the vehicle group was intraperitoneally administered with scopolamine hydrobromide (manufactured by Sigma-Aldrich Japan S1875) (a dose of 1 mg/kg) which is muscarinic acetylcholine receptor antagonist 30 minutes after the administration. The mice of the control group which were not administered with scopolamine hydrobromide were intraperitoneally administered with (Japanese Pharmacopoeia) physiological saline solution (OTSUKA NORMAL SALINE 3311401A2026). At 30 minutes after the final administration, Y-maze test was conducted, and the working memory was evaluated. The test using the mice orally administered was separately conducted under the same condition as that described above for comparative evaluation of the intraperitoneal administration.
# The Y-maze manufactured by Brain Science. idea Co., Ltd. was used for the test. The maze was the maze 3 courses of which were made into Y-letter shape having one selection point and arranged at interval of an angle of 120 degree. […] The mouse put on the gray course (made of polyvinyl chloride) was kept in the conditions and the mouse can see nothing but the upper part. Any one of the 3 courses of the maze was set as a starting point. After placing the mouse quietly at the starting point, the number of the times the mouse entered each course was record per 8 minutes, and as well as which course and in what order the mouse entered it. The ratio of the number of three consecutive entries into different courses (the number of the alternation behavior) to the total number of the selections was calculated as Spontaneous Alternation (%) according to the following formula and was used as an index of the short-term working memory.
# From the results obtained, the mean (Mean) and the standard error (SEM) were calculated. The significant difference between the control group and the Vehicle group and between the compound A administration group and the Vehicle group was assessed by Turkey-Kramer's test. The level of significance was set to *P<0.05 and **p<0.01.
# [2] = system: extracellular acetylcholine in the cerebral cortex; experiment: Amount of extracellular acetylcholine in mouse brain by in vivo microdialysis (Test Example 1); set-up: species or system ddY mouse; conditions: for amount of extracellular acetylcholine in the cerebral cortex (ratio to basic released amount): oral 30 mg/kg, measured for 120 minutes after administration, compared with before administration, FIG. 1
# Procedure: The compound A, B, and C were administered orally to the mouse and the effect on the amount of extracellular acetylcholine in the brain was examined. The brain microdyalysis method using the mouse is proposed as a test for evaluating cognitive dysfunction including Alzheimer type dementia. The brain microdyalysis method is a system that can monitor the variation of extracellular neurotransmitter release in real time at the local parts in the brain while the test animals are moving freely without anesthesia.
# as §1
# In the two days before the start of the experiment, the fixing operation of the guide cannula for inserting the dialysis probe in the mouse was conducted in advance. Under the deep anesthetized conditions, the guide cannula (depth 4 mm) (manufactured by Eicom Corp.,) was inserted in and fixed on cerebral cortex prefrontal area (which was 1.9 mm forward and 0.5 mm right side from the bregma and to which the depth from cranial surface was 0.8 mm). Buprenorphine (0.01 mg/kg manufactured by Sigma-Aldrich Japan) was administered to the mouse as analgesic after the operation. Each mouse was reared in the separate cage after the operation.
# In the step of measuring extracellular acetylcholine in the brain, the dialysis probe (membrane length 3 mm) (manufactured by Eicom Corp.,) was inserted in the guide cannula and the Ringer's solution in the Japanese Pharmacopeia (containing NaCl (147.2 mM), KCl (4.0 mM), and CaCl2 (2.2 mM); manufactured by FUSO CHEMICAL CO., LTD.) was perfused at the flow velocity of 1 μL/min. The sample obtained by the perfusion was collected every 20 minutes and was immediately continuously automatically injected in the high-speed liquid chromatography/electrochemical detector (HPLC/ECD) system (manufactured by Eicom Corp., HTEC-500) together with the internal standard material (isopropylhomocholine, 250 fmol) and acetylcholine was measured under the condition described below.
# • Column: Eicompak AC-GEL (2.0 mm; i.d.×150 mm) (manufactured by Eicom Corp.,) • Precolumn: PC-05-03 (3.0 mm; i.d.×40 mm) (manufactured by Eicom Corp.,) • Enzyme-immobilized column: AC-Enzympak (3.0 mm; i.d.) (manufactured by Eicom Corp.,) • Mobile Phase: 50 mM potassium hydrogen carbonate buffer containing 400 mg/L sodium decansulfonic acid and 134 μM EDTA (pH 8.3) • Flow Velocity: 150 μl/min. • Temperature of column: 33° C. • Applied voltage of ECD: +450 mV • Reference electrode: Ag/AgCl electrode • Work electrode: platinum electrode
# The compound A prepared according to the procedure described in Manufacturing Example 1 was dissolved in 2.5% DMSO solution in advance to prepare for the test. […] The amount of the extracellular acetylcholine released was measured by the procedure described above in (a) Used animal and Rearing Procedure in real time for 120 minutes after the administration. The mouse in Vehicle group took only 2.5% DMSO solution orally in the same way and the amount of the extracellular acetylcholine was measured. […]
# [3] = system: cytotoxicity induced by β-oligomer; conditions: cited from earlier work
# [4] = cited from earlier work
# [5] = system: amyloid β; conditions: mouse model of the Alzheimer's disease; cited from earlier work
# [6] = system: cranial nerve cell SH-SY5Y; conditions: SH-SY5Y in vitro; cited from earlier work
# [7] = mouse, oral administration; cited from earlier work
# [8] = molecular target: acetylcholine esterase (Homo sapiens, UniProt P22303); experiment: Inhibiting action of acetylcholine esterase (data not described); format: biochemical
# Chain of acetylcholine esterase (P22303 32-614): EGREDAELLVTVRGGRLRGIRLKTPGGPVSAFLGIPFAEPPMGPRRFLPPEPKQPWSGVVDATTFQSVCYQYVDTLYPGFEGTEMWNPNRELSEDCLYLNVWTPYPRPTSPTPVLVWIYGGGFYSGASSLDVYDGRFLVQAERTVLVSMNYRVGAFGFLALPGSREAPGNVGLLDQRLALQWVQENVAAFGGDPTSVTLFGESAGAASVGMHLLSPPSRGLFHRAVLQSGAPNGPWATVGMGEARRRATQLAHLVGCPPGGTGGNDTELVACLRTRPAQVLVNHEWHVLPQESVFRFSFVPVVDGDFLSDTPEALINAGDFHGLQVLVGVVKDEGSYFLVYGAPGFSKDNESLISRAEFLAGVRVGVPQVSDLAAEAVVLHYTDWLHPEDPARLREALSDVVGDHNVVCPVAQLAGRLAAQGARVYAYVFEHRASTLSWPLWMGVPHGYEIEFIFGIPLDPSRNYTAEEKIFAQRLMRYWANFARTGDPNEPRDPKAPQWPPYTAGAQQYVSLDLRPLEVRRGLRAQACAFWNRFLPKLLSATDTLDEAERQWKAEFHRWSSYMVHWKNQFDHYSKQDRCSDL
structure (smiles),measurement,setting,value
"O=C1CC[C@H](Cc2cc(O)c(O)c(O)c2)O1 [compound C, (R)-5-(3,4,5-trihydroxyphenyl)-γ-valerolactone, reference compound]",ameliorating the impairment of short-term working memory (Spontaneous Alternation),[1],not confirmed at all
same,amount of extracellular acetylcholine in the cerebral cortex (ratio to basic released amount),[2],not significant change
"O=C1CC[C@H](Cc2ccc(O)c(O)c2)O1 [compound B, (R)-5-(3,4-dihydroxyphenyl)-γ-valerolactone, reference compound]",ameliorating the impairment of short-term working memory (Spontaneous Alternation),[1],not confirmed at all
same,amount of extracellular acetylcholine in the cerebral cortex (ratio to basic released amount),[2],not significant change
O=C1CCC(Cc2ccc(O)cc2)O1 (centres unmarked) [5-(4-monohydroxyphenyl)-γ-valerolactone],cytotoxicity induced by β-oligomer,[3],reduces the cytotoxicity
"O=C(O[C@@H]1Cc2c(O)cc(O)cc2O[C@@H]1c1cc(O)c(O)c(O)c1)c1cc(O)c(O)c(O)c1 [EGCg, epigallocatechingallate]",amount absorbed into the body after ingestion (bioavailability),[4],extremely low
same,generation of amyloid β,[5],inhibit the generation of amyloid β
"O=C1CCC(Cc2cc(O)cc(O)c2)O1 (centres unmarked) [5-(3,5-dihydroxyphenyl)-γ-valerolactone]",nerve cell proliferating action,[6],significant nerve cell proliferating action
same,sulfate conjugate and glucuronic acid conjugate in the serum,[7],detected
same,inhibiting action of acetylcholine esterase,[8],do not provide inhibiting action
same,time until which the increased amount of free acetylcholine is maintained,[2]; after the administration,≤ 100 min
